The source of these data is patent US12091424B2, “Rapamycin derivatives” (NOVARTIS AG, priority 2017, dated 2024).

Some results are limits rather than exact numbers.

The subject of data set [1] is mTORC1 signaling. In words: MEF TSC1−/− cell-based assay for rapalog potency (pS6). Also noted: species or system Mouse. As to conditions: MEF TSC1−/− cells, average from multiple assays. The procedure: Cell-based assay for rapalog potency determination. Rapalog potency was determined using MEF TSC1−/− cell based assay. MEF TSC1−/− cells are Mouse Embryonic Fibroblasts deficient in Tuberous sclerosis protein—TSC1, which negatively regulates mTORC1 signaling and thus display constitutive mTORC1 activation, resulting in phosphorylation (activation) of downstream molecules. This cell-based assay is used to measure inhibition (de-phosphorylation) of S6 and 4EBP1 by rapalogs or other mTOR inhibitors.
MEF TSC1−/− cells were plated on Poly-D-lysine coated 384 well Griener clear bottom plates and incubated overnight at 37° C., 5% CO2. […] Nuclei were visualized with Hoechst (ThermoFisher Scientific #H3570) staining. Cells were imaged (InCell 600) using respective fluorescence channels and the potency of mTOR inhibitors was defined by pS6 IC50 (nM).
In vitro potency of mTOR inhibitors was defined by pS6 IC50 (nM) in MEF TSC1−/− cells.

Data set [2] has as its target FKBP12 (Homo sapiens (Human), UniProt P62942). Description: SPR assay, binding affinity to FKBP12. The settings on record: single-cycle kinetics. On the procedure:
(§1) SPR Assay to Determine Binding Affinity to FK506-Binding Proteins (FKBP). N-terminal avi-his6 tagged FKBP fusions to FKBP12, FKBP51 and FKBP52 were expressed in E. coli and purified using standard chromatography. Each protein was subsequently immobilized on a streptavidin chip in a Biacore 8K SPR instrument (GE Healthcare). Using single-cycle kinetics, compound titrations were flowed at 45 uL/min over each surface using 2-minute association and 30-minute dissociation phases in a buffer containing 50 mM Tris pH 7.5/150 mM NaCl/0.01% Tween 20/1 mM DTT/2% DMSO. The data was fit using low molecular weight (LMW) single-cycle kinetics. The equilibrium dissociation constants (KD) are reported.
(In general: In SPR one partner is held on a chip, and binding of the other changes the refractive index at the surface.)

Data set [3] concerns the target FKBP51 (Homo sapiens (Human), UniProt Q13451). In words: SPR assay, binding affinity to FKBP51. As to conditions: single-cycle kinetics. On the procedure:
as §1

The target in data set [4] is FKBP52 (Homo sapiens (Human), UniProt Q02790). In words: SPR assay, binding affinity to FKBP52. The settings on record: single-cycle kinetics. On the procedure:
as §1

The subject of data set [5] is S6K1 (Thr389) in FKBP12 knock-down 293T cells. Description: S6K1 (Thr389) phosphorylation ELISA in FKBP12 knock-down 293T cells. The class given is cell-based. The settings on record: 2 hours treatment. For orientation: ELISA stands for enzyme-linked immunosorbent assay.
Experimental: Generating FKPB12 knock-down cells. […] Selection was performed with puromycin for 48 hours and cells were plated for colony formation. FKBP12 knock-down clones were screened by immunoblotting with an anti-FKBP12 antibody (Thermo Scientific, Pierce #PA1-026A).
WT, FKBP12 knock-down and FKBP12 knock-out 293T cells were plated at a density of 30,000 cells per well in poly-D-Lysine coated 96-well plates (Corning, #354461) in Dulbecco's modified Eagle's medium (ThermoFisher, #11995-065) supplemented with 10% fetal bovine serum (ThermoFisher, #16140-071). Cells were incubated at 37° C., 5% CO2 for 48 hours until they reached 80% confluence. […] Media supplemented with blank Dimethyl sulfoxide (DMSO) was used as a control for both compounds. Phosphorylated amounts of S6K1 (Thr389) were detected by a sandwich ELISA kit (Cell signaling, #7063C) following the manufacture's protocol.
Data set [6] is described as follows: in vivo. The settings on record: male, Sprague Dawley, rat, whole blood.

Sequence of FKBP51 (Q13451 whole entry): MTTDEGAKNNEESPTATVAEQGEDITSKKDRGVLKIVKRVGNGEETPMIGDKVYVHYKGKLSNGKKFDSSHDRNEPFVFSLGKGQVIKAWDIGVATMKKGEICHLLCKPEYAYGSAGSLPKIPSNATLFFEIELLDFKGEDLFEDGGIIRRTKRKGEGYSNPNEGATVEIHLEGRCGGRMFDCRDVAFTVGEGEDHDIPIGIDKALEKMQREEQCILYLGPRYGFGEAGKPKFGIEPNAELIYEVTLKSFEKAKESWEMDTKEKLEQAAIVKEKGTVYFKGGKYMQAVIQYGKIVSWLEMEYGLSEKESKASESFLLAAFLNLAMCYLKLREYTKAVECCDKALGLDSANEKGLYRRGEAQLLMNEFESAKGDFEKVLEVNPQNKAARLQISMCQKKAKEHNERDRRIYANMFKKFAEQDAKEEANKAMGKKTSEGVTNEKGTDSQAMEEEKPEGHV
Sequence of FKBP52 (Q02790 whole entry): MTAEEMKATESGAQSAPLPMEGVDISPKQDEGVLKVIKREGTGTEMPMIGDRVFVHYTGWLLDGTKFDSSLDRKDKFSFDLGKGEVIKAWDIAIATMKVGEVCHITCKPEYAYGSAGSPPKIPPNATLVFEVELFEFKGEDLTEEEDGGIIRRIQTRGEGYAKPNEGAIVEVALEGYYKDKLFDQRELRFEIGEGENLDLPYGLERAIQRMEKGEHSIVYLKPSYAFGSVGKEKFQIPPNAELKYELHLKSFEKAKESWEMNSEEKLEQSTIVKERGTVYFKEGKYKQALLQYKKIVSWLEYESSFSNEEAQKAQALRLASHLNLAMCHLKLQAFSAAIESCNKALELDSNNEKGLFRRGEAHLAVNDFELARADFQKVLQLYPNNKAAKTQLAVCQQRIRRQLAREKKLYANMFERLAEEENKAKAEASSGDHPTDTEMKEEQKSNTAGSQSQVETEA
Sequence of FKBP12 (P62942 whole entry, the tested form may be a part): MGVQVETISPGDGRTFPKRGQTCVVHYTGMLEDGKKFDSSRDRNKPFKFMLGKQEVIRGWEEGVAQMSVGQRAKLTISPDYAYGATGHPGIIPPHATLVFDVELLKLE

The term IC50 denotes the midpoint of a concentration-inhibition curve. Read a low IC50 as inhibition by little substance. What is called Kd is the concentration at which binding is half-saturated. Low values mean higher affinity, high ones lower affinity. The compound `CO[C@@H]1C[C@H](C[C@@H](C)[C@@H]2CC[C@H](C)/C=C(\C)[C@@H](O)[C@@H](OC)C(=O)[C@H](C)C[C@H](C)/C=C/C=C/C=C(\C)C(N3CCS3(=O)=O)C[C@@H]3CC[C@@H](C)[C@@](O)(O3)C(=O)C(=O)N3CCCC[C@H]3C(=O)O2)CC[C@H]1O` (single isomer, unassigned) [Example 6, C16-(1,1-dioxido-1,2-thiazetidin-2-yl)-C32-deoxo-rapamycin] showed an IC50 in data set [1] (Mus musculus) of 0.17 nM. Also, the Kd was 0.32 nM in data set [2], 39 nM in data set [3] and 53 nM in data set [4].

For the compound `CO[C@@H]1C[C@H](C[C@@H](C)[C@@H]2CC[C@H](C)/C=C(\C)[C@@H](O)[C@@H](OC)C(=O)[C@H](C)C[C@H](C)/C=C/C=C/C=C(\C)C(N3CCS3(=O)=O)C[C@@H]3CC[C@@H](C)[C@@](O)(O3)C(=O)C(=O)N3CCCC[C@H]3C(=O)O2)CC[C@@H]1n1cnnn1` (single isomer, unassigned) [Example 12], half-maximal inhibition in data set [1] (Mus musculus) (IC50) was put at 0.374 nM.

The compound `CO[C@H]1C[C@@H]2CC[C@@H](C)[C@@](O)(O2)C(=O)C(=O)N2CCCC[C@H]2C(=O)O[C@H]([C@H](C)C[C@@H]2CC[C@@H](OP(C)(C)=O)[C@H](OC)C2)CC[C@H](C)/C=C(\C)[C@@H](O)[C@@H](OC)C(=O)[C@H](C)C[C@H](C)/C=C/C=C/C=C/1C` [Intermediate 4] registered an IC50 in data set [1] (Mus musculus) of 0.066 nM.

With `CO[C@@H]1C[C@H](C[C@@H](C)[C@@H]2CC[C@H](C)/C=C(\C)[C@@H](O)[C@@H](OC)C(=O)[C@H](C)C[C@H](C)/C=C/C=C/C=C(\C)C(N3CCN(CCO)C3=O)C[C@@H]3CC[C@@H](C)[C@@](O)(O3)C(=O)C(=O)N3CCCC[C@H]3C(=O)O2)CC[C@H]1O` (single isomer, unassigned) [Example 5], in data set [1] (Mus musculus), the IC50 amounted to 153 nM.

`CO[C@@H]1C[C@H](C[C@@H](C)[C@@H]2CC[C@H](C)/C=C(\C)[C@@H](O)[C@@H](OC)C(=O)[C@H](C)C[C@H](C)/C=C/C=C/C=C(\C)C(N3CCCS3(=O)=O)C[C@@H]3CC[C@@H](C)[C@@](O)(O3)C(=O)C(=O)N3CCCC[C@H]3C(=O)O2)CC[C@H]1OP(C)(C)=O` (single isomer, unassigned) [Example 15, C16-(1,1-dioxidoisothiazolidin-2-yl)-C32-deoxo-C40-dimethylphosphinyl-rapamycin] registered an IC50 in data set [1] of 3.2 nM.

By clearance is commonly meant a measure of how efficiently the substance is removed, as volume per time. A higher clearance goes with a high capacity for elimination. As a reminder, the bioavailability is dose-corrected exposure relative to a reference, in per cent. A low value points to little systemic uptake. Take `CO[C@H]1C[C@@H]2CC[C@@H](C)[C@@](O)(O2)C(=O)C(=O)N2CCCC[C@H]2C(=O)O[C@H]([C@H](C)C[C@@H]2CC[C@@H](OCCO)[C@H](OC)C2)CC(=O)[C@H](C)/C=C(\C)[C@@H](O)[C@@H](OC)C(=O)[C@H](C)C[C@H](C)/C=C/C=C/C=C/1C` [RAD001, everolimus, reference compound]: the IC50 in data set [1] (Mus musculus) worked out at 0.05 nM. Moreover, the Kd in data set [3] is 811 nM. The “maximum inhibition of S6K1(Thr389)” value in data set [5] came out at 70%. The clearance in data set [6] (iv, 1 mg/kg) is 32 mL/min/kg. Also, in data set [6] (oral, 3 mg/kg), the bioavailability was determined as 19%.

`CO[C@@H]1C[C@H](C[C@@H](C)[C@@H]2CC[C@H](C)/C=C(\C)[C@@H](O)[C@@H](OC)C(=O)[C@H](C)C[C@H](C)/C=C/C=C/C=C(\C)C(N3CCS3(=O)=O)C[C@@H]3CC[C@@H](C)[C@@](O)(O3)C(=O)C(=O)N3CCCC[C@H]3C(=O)O2)CC[C@H]1OP(C)(C)=O` (single isomer, unassigned) [Example 11, C16-(1,1-dioxido-1,2-thiazetidin-2-yl)-C32-deoxo-C40-dimethylphosphinyl-rapamycin] gave an IC50 in data set [1] (Mus musculus) of 3.33 nM.

On to `CO[C@@H]1C[C@H](C[C@@H](C)[C@@H]2CC[C@H](C)/C=C(\C)[C@@H](O)[C@@H](OC)C(=O)[C@H](C)C[C@H](C)/C=C/C=C/C=C(\C)C(N3CCS3(=O)=O)C[C@@H]3CC[C@@H](C)[C@@](O)(O3)C(=O)C(=O)N3CCCC[C@H]3C(=O)O2)CC[C@H]1OP(C)(C)=O` (single isomer, unassigned) [Example 10, C16-(1,1-dioxido-1,2-thiazetidin-2-yl)-C32-deoxo-C40-dimethylphosphinyl-rapamycin], for which the 50% inhibitory concentration (IC50) in data set [1] (Mus musculus) amounted to 0.557 nM. The same compound registered a Kd in data set [3] of 95 nM.

`CO[C@@H]1C[C@H](C[C@@H](C)[C@@H]2CC[C@H](C)/C=C(\C)[C@@H](O)[C@@H](OC)C(=O)[C@H](C)C[C@H](C)/C=C/C=C/C=C(\C)C(N3CCCS3(=O)=O)C[C@@H]3CC[C@@H](C)[C@@](O)(O3)C(=O)C(=O)N3CCCC[C@H]3C(=O)O2)CC[C@@H]1n1cnnn1` (single isomer, unassigned) [Example 17] registered an IC50 in data set [1] (Mus musculus) of 1.1 nM.

Turning to `CO[C@H]1C[C@@H]2CC[C@@H](C)[C@@](O)(O2)C(=O)C(=O)N2CCCC[C@H]2C(=O)O[C@H]([C@H](C)C[C@@H]2CC[C@H](n3cnnn3)[C@H](OC)C2)CC[C@H](C)/C=C(\C)[C@@H](O)[C@@H](OC)C(=O)[C@H](C)C[C@H](C)/C=C/C=C/C=C/1C` [Intermediate 5], 0.106 nM corresponded to half-maximal inhibition in data set [1] (Mus musculus) (IC50).

As to `CO[C@@H]1C[C@H](C[C@@H](C)[C@@H]2CC[C@H](C)/C=C(\C)[C@@H](O)[C@@H](OC)C(=O)[C@H](C)C[C@H](C)/C=C/C=C/C=C(\C)C(N3CCC3=O)C[C@@H]3CC[C@@H](C)[C@@](O)(O3)C(=O)C(=O)N3CCCC[C@H]3C(=O)O2)CC[C@H]1O` (single isomer, unassigned) [Example 3], half-maximal inhibition in data set [1] (Mus musculus) (IC50) was put at 1.45 nM.

As for `CO[C@@H]1C[C@H](C[C@@H](C)[C@@H]2CC[C@H](C)/C=C(\C)[C@@H](O)[C@@H](OC)C(=O)[C@H](C)C[C@H](C)/C=C/C=C/C=C(\C)[C@@H](N3CCCS3(=O)=O)C[C@@H]3CC[C@@H](C)[C@@](O)(O3)C(=O)C(=O)N3CCCC[C@H]3C(=O)O2)CC[C@H]1O` [Example 1, (S)—C16-(1,1-dioxidoisothiazolidin-2-yl)-C32-deoxo-rapamycin], inhibition in data set [1] (Mus musculus) was half-maximal at 2.4 nM (IC50). Further, the equilibrium dissociation constant (Kd) in data set [2] amounted to 0.35 nM; in data set [3], 153 nM; in data set [4], 174 nM.

As for `CO[C@@H]1C[C@H](C[C@@H](C)[C@@H]2CC[C@H](C)/C=C(\C)[C@@H](O)[C@@H](OC)C(=O)[C@H](C)C[C@H](C)/C=C/C=C/C=C(\C)C(N3CCS3(=O)=O)C[C@@H]3CC[C@@H](C)[C@@](O)(O3)C(=O)C(=O)N3CCCC[C@H]3C(=O)O2)CC[C@H]1O` (single isomer, unassigned) [Example 7, C16-(1,1-dioxido-1,2-thiazetidin-2-yl)-C32-deoxo-rapamycin], the figures for the Kd in data set [2], in data set [3] and in data set [4] were 1.2 nM, 287 nM and 236 nM, respectively.

In data set [1] (Mus musculus), `CO[C@@H]1C[C@H](C[C@@H](C)[C@@H]2CC[C@H](C)/C=C(\C)[C@@H](O)[C@@H](OC)C(=O)[C@H](C)C[C@H](C)/C=C/C=C/C=C(\C)[C@H](N3CCCS3(=O)=O)C[C@@H]3CC[C@@H](C)[C@@](O)(O3)C(=O)C(=O)N3CCCC[C@H]3C(=O)O2)CC[C@H]1OCCO` [Example 16, (R)—C16-(1,1-dioxidoisothiazolidin-2-yl)-C32-deoxo-C40-(2-hydroxyethoxy)-rapamycin] displayed an IC50 of 0.645 nM. This compound had a Kd in data set [3] of 4060 nM.

In data set [1] (Mus musculus), `CO[C@H]1C[C@@H]2CC[C@@H](C)[C@@](O)(O2)C(=O)C(=O)N2CCCC[C@H]2C(=O)O[C@H]([C@H](C)C[C@@H]2CC[C@@H](OCCO)[C@H](OC)C2)CC[C@H](C)/C=C(\C)[C@@H](O)[C@@H](OC)C(=O)[C@H](C)C[C@H](C)/C=C/C=C/C=C/1C` [Intermediate 3] displayed an IC50 of 0.0591 nM.

For `CO[C@@H]1C[C@H](C[C@@H](C)[C@@H]2CC[C@H](C)/C=C(\C)[C@@H](O)[C@@H](OC)C(=O)[C@H](C)C[C@H](C)/C=C/C=C/C=C(\C)C(N3CCN(C)C3=O)C[C@@H]3CC[C@@H](C)[C@@](O)(O3)C(=O)C(=O)N3CCCC[C@H]3C(=O)O2)CC[C@H]1O` (single isomer, unassigned) [Example 4, C16-(3-methylimidazolidin-2-one-1-yl)-C32-deoxo-rapamycin], the IC50 in data set [1] (Mus musculus) is more than 500 nM.

As to `CCOCCO[C@@H]1CC[C@@H](C[C@@H](C)[C@@H]2CC[C@H](C)/C=C(\C)[C@@H](O)[C@@H](OC)C(=O)[C@H](C)C[C@H](C)/C=C/C=C/C=C(\C)C(N3CCCS3(=O)=O)C[C@@H]3CC[C@@H](C)[C@@](O)(O3)C(=O)C(=O)N3CCCC[C@H]3C(=O)O2)C[C@H]1OC` (single isomer, unassigned) [Example 18, C16-(1,1-dioxidoisothiazolidin-2-yl)-C32-deoxo-C40-(2-ethoxyethoxy)-rapamycin], the IC50 in data set [1] (Mus musculus) was found to be 1.55 nM.

For the compound `CO[C@H]1C[C@@H]2CC[C@@H](C)[C@@](O)(O2)C(=O)C(=O)N2CCCC[C@H]2C(=O)O[C@H]([C@H](C)C[C@@H]2CC[C@@H](O)[C@H](OC)C2)CC[C@H](C)/C=C(\C)[C@@H](O)[C@@H](OC)C(=O)[C@H](C)C[C@H](C)/C=C/C=C/C=C/1C` [Intermediate 1, C32-deoxo-rapamycin, reference compound], the IC50 in data set [1] (Mus musculus) was found to be 0.092 nM.
